In brackets after ≈: the same amount, converted by molar mass. Read-outs that look alike come from different tables or passages of the source.
Assays:
[1] = test system: K. pneumoniae No. 42; experiment: in vitro antibacterial activity, agar plate dilution method (MIC); format: cell-based; settings: Klebsiella pneumoniae, 10^6 CFU/ml
Procedure: (§1) The in vitro antibacterial activities of the compounds of the present invention against various microorganisms, were measured by the following agar plate dilution method. One platinum loopfull of each test microorganism incubated overnight in Mueller Hinton broth, was inoculated to Mueller Hinton agar (inoculum size: 10^6 CFU/ml). Such culture media containing various antibiotics in various concentrations were prepared. After incubation at 37° C. for 16 hours, the minimum inhibitory concentrations (MIC: μg/ml) were measured.

[2] = test system: E. coli NIHJ JC2; experiment: as above; format: cell-based; settings: Escherichia coli
Procedure: as §1

[3] = test system: S. marcescens IAM 1184; experiment: as above; format: cell-based; settings: Serratia marcescens, IAM1184, 16 h, read-out: Minimum Inhibitory Concentration (MIC)
Procedure: as §1

[4] = test system: S. aureus 209P NIHJ-JC1; experiment: as above; format: cell-based; settings: Staphylococcus aureus, 16 h
Procedure: as §1

[5] = test system: E. cloacae 963; experiment: as above; format: cell-based; settings: 10^6 CFU/ml
Procedure: as §1

[6] = test system: M. morganii GN5407; experiment: as above; format: cell-based; settings: Morganella morganii, 10^6 CFU/ml
Procedure: as §1

[7] = test system: K. oxytoca GN10650; experiment: as above; format: cell-based; settings: Klebsiella oxytoca, 10^6 CFU/ml
Procedure: as §1

[8] = test system: P. vulgaris No. 33; experiment: as above; format: cell-based; settings: Proteus vulgaris, NO.33, 16 h, read-out: Minimum Inhibitory Concentration (MIC), *P. vulgaris No. 33, lactamase-producing strain; 10^6 CFU/ml
Procedure: as §1

[9] = test system: P. vulgaris HX-19; experiment: as above; format: cell-based; settings: Proteus vulgaris, HX19, 16 h, read-out: Minimum Inhibitory Concentration (MIC)
Procedure: as §1

[10] = test system: E. coli GN5482; experiment: as above; format: cell-based; settings: Escherichia coli, read-out: Minimum Inhibitory Concentration (MIC)
Procedure: as §1

[11] = test system: K. pneumoniae PCI-602; experiment: as above; format: cell-based; settings: Klebsiella pneumoniae, PCI602, 16 h, 10^6 CFU/ml
Procedure: as §1

[12] = test system: E. cloacae Nek 39; experiment: as above; format: cell-based; settings: Enterobacter cloacae, NEK39, 16 h, 10^6 CFU/ml
Procedure: as §1

[13] = test system: S. marcescens No. 16-2; experiment: as above; format: cell-based; settings: Serratia marcescens, NO.162, 16 h
Procedure: as §1

[14] = test system: Ps. aeruginosa AKR17; experiment: as above; format: cell-based, Pseudomonas aeruginosa; settings: Pseudomonas aeruginosa, 16 h; Ps. aeruginosa AKR17; 10^6 CFU/ml; read-out: Minimum Inhibitory Concentration (MIC)
Procedure: as §1

[15] = test system: Ps. aeruginosa IF03445; experiment: as above; format: cell-based, Pseudomonas aeruginosa; settings: Pseudomonas aeruginosa, 10^6 CFU/ml
Procedure: as §1

[16] = test system: Ps. aeruginosa AK 109; experiment: as above; format: cell-based, Pseudomonas aeruginosa; settings: Pseudomonas aeruginosa, AK109, 16 h, read-out: Minimum Inhibitory Concentration (MIC)
Procedure: as §1

[17] = test system: A. calcoaceticus No. 4; experiment: as above; format: cell-based, Acinetobacter calcoaceticus; settings: Acinetobacter calcoaceticus, NO.4, 16 h, 10^6 CFU/ml
Procedure: as §1

[18] = test system: Ps. cepacia 23; experiment: as above; format: cell-based, Pseudomonas cepacia; settings: Burkholderia cepacia, 16 h; Ps. cepacia 23; 10^6 CFU/ml; read-out: Minimum Inhibitory Concentration (MIC)
Procedure: as §1

[19] = test system: E. coli CSH(RE45); experiment: microbe, parasite or virus in culture; format: cell-based; settings: Escherichia coli, 16 h, read-out: Minimum Inhibitory Concentration (MIC), *E. coli CSH(RE45), lactamase-producing strain; 10^6 CFU/ml
Procedure: as §1

[20] = test system: E. coli CSH2 (RK1); experiment: microbe, parasite or virus in culture; format: cell-based; settings: Escherichia coli, 16 h, read-out: Minimum Inhibitory Concentration (MIC), *E. coli CSH2 (RK1), lactamase-producing strain; 10^6 CFU/ml
Procedure: as §1

[21] = NO.42, 16 h, read-out: Minimum Inhibitory Concentration (MIC), *K. pneumoniae No. 42, lactamase-producing strain
[22] = NIHJJC2, 16 h, read-out: Minimum Inhibitory Concentration (MIC), E. coli NIHJ JC2, 10^6 CFU/ml, 37° C.
[23] = read-out: Minimum Inhibitory Concentration (MIC), S. aureus 209P NIHJ-JC1, 10^6 CFU/ml, 37° C., 16 hours
[24] = Enterobacter cloacae, 963, 16 h, read-out: Minimum Inhibitory Concentration (MIC), E. cloacae 963
[25] = GN5407, 16 h, read-out: Minimum Inhibitory Concentration (MIC), *M. morganii GN5407, lactamase-producing strain
[26] = GN10650, 16 h, read-out: Minimum Inhibitory Concentration (MIC), *K. oxytoca GN10650, lactamase-producing strain
[27] = read-out: Minimum Inhibitory Concentration (MIC), K. pneumoniae PCI-602
[28] = read-out: Minimum Inhibitory Concentration (MIC), *E. cloacae Nek 39, lactamase-producing strain
[29] = read-out: Minimum Inhibitory Concentration (MIC), *S. marcescens No. 16-2, lactamase-producing strain, 10^6 CFU/ml
[30] = IF03445, 16 h, read-out: Minimum Inhibitory Concentration (MIC), Ps. aeruginosa IF03445
[31] = Ps. aeruginosa AK 109, 10^6 CFU/ml
[32] = read-out: Minimum Inhibitory Concentration (MIC), A. calcoaceticus No. 4
[33] = read-out: Minimum Inhibitory Concentration (MIC)
[34] = Enterobacter cloacae, 16 h, E. cloacae 963, read-out: Minimum Inhibitory Concentration (MIC)
[35] = S. aureus 209P NIHJ-JC1, 10^6 CFU/ml, 37° C., 16 hours, read-out: Minimum Inhibitory Concentration (MIC)
[36] = *E. cloacae Nek 39, lactamase-producing strain, read-out: Minimum Inhibitory Concentration (MIC)
[37] = *S. marcescens No. 16-2, lactamase-producing strain, 10^6 CFU/ml, read-out: Minimum Inhibitory Concentration (MIC)
[38] = 16 h, Ps. aeruginosa IF03445, read-out: Minimum Inhibitory Concentration (MIC)
[39] = A. calcoaceticus No. 4, read-out: Minimum Inhibitory Concentration (MIC)

Structure (SMILES) | MIC [1, 21] [µg/mL] | MIC [2, 22] [µg/mL] | MIC [3] [µg/mL] | MIC [4, 23] [µg/mL] | MIC [5, 24] [µg/mL] | MIC [6, 25] [µg/mL] | MIC [7, 26] [µg/mL] | MIC [8] [µg/mL] | MIC ([9]; P. vulgaris HX-19, 10^6 CFU/ml) [µg/mL] | MIC ([10]; GN5482, 16 h) [µg/mL] | MIC [11, 27] [µg/mL] | MIC [12, 28] [µg/mL] | MIC [13, 29] [µg/mL] | MIC [14] [µg/mL] | MIC [16, 31] [µg/mL] | MIC [18] [µg/mL] | MIC [19] [µg/mL] | MIC [20] [µg/mL] | MIC [5, 34] [µg/mL] | MIC [15, 38] [µg/mL] | further results
C#CCO/N=C(\C(=O)N[C@@H]1C(=O)N2C(C(=O)O)=C(CSc3nnc(-c4ccc(O)c(O)c4)o3)CS[C@H]12)c1csc(N)n1 [compound 9, sodium 7β-[2-(2-aminothiazol-4-yl)-2-(2-propynyloxyimino)acetamido]-3-[5-(3,4-dihydroxyphenyl)-1,3,4-oxadiazol-2-yl]thiomethyl-3-cephem-4carboxylate] | 0.025 | 0.1 | 0.0125 | 0.78 | 0.0125 | 0.0125 | 6.25 | 0.025 | < 0.006 | 0.39 | 0.0125 | 0.1 | 6.25 | > 100 | 0.2 | 0.05 | 0.0125 | 0.0125 |  |  | MIC [15, 30]: 1.56 µg/mL; MIC [17, 32]: 0.1 µg/mL
CCON=C(C(=O)NC1C(=O)N2C(C(=O)O)=C(CSc3nc(C(=O)O)c(-c4ccc(O)c(O)c4)s3)CSC12)c1csc(N)n1 (stereo not drawn) [compound 53, disodium 7β-[2-(2-aminothiazol-4-yl)-2-ethoxyiminoacetamido]-3-[4-carboxylate-5-(3,4-dihydroxyphenyl)thiazol-2-yl]thiomethyl-3-cephem-4-carboxylate] | 0.1 | 0.78 |  |  |  | 0.05 | 3.12 | 0.025 |  | 3.12 | < 0.006 | 0.39 | 6.25 | 50 |  | 0.025 | 0.025 | 0.0125 | 0.1 |  | MIC ([3]; S. marcescens IAM 1184, 10^6 CFU/ml): 0.05 µg/mL; MIC [4, 33]: 12.5 µg/mL; MIC [9]: 0.0125 µg/mL; MIC [15, 30]: 3.12 µg/mL; MIC [16]: 3.12 µg/mL; MIC [17, 32]: 0.39 µg/mL
CO/N=C(\C(=O)N[C@@H]1C(=O)N2C(C(=O)O)=C(COC(C)=O)CS[C@H]12)c1csc(N)n1 [cefotaxime, reference compound] |  |  | 0.0125 (≈ 0.0274 µM) |  |  |  |  |  | < 0.006 |  |  |  |  |  | 12.5 (≈ 27.4 µM) | 6.25 (≈ 13.7 µM) |  | 0.0125 (≈ 0.0274 µM) | 0.05 (≈ 0.11 µM) | 2.5 (≈ 5.49 µM) | MIC [4, 35]: 1.56 µg/mL (≈ 3.43 µM); MIC ([6]; 16 h, *M. morganii GN5407, lactamase-producing strain, read-out: Minimum Inhibitory Concentration (MIC)): 0.05 µg/mL (≈ 0.11 µM); MIC ([11]; K. pneumoniae PCI-602, read-out: Minimum Inhibitory Concentration (MIC)): < 0.006 µg/mL; MIC [12, 36]: 1.56 µg/mL (≈ 3.43 µM); MIC [13, 37]: 6.25 µg/mL (≈ 13.7 µM)
CC(C)(O/N=C(\C(=O)N[C@@H]1C(=O)N2C(C(=O)O)=C(CSc3nnc(-c4ccc(O)cc4)o3)CS[C@H]12)c1csc(N)n1)C(=O)O [compound 4, disodium 7β-[2-(2-aminothiazol-4-yl)-2-(1-carboxylate-1-methylethoxyimino)acetamido]-3-[5-(4-hydroxyphenyl)-1,3,4-oxadiazol-2-yl]thiomethyl-3-cephem-4-carboxylate, reference compound] |  |  | 0.78 |  |  | 0.78 |  | 0.2 | 0.1 |  | 0.1 | 12.5 |  | > 100 |  |  | 0.78 | 0.78 | 3.12 | 25 | MIC ([1]; 16 h, *K. pneumoniae No. 42, lactamase-producing strain, read-out: Minimum Inhibitory Concentration (MIC)): 1.56 µg/mL; MIC ([2]; NIHJJC2, E. coli NIHJ JC2, 10^6 CFU/ml, 37° C., 16 hours, read-out: Minimum Inhibitory Concentration (MIC)): 3.12 µg/mL; MIC [4, 35]: 6.25 µg/mL; MIC ([7]; 16 h, *K. oxytoca GN10650, lactamase-producing strain, read-out: Minimum Inhibitory Concentration (MIC)): 1.56 µg/mL; MIC ([10]; 16 h, *E. coli GN5482, lactamase-producing strain, 10^6 CFU/ml): 1.56 µg/mL; MIC [13, 33]: 12.5 µg/mL; MIC [16]: 12.5 µg/mL; MIC [17, 39]: 25 µg/mL
CC(C)(O/N=C(\C(=O)N[C@@H]1C(=O)N2C(C(=O)O)=C(CSc3nnc(-c4ccccc4)o3)CS[C@H]12)c1csc(N)n1)C(=O)O [compound 3, disodium 7β-[2-(2-aminothiazol-4-yl)-2-(1-carboxylate-1-methylethoxyimino)acetamido]3-(5-phenyl-1,3,4-oxadiazol-2-yl) thiomethyl-3-cephem-4-carboxylate, reference compound] | 3.12 | 3.12 | 1.56 | 6.25 | 6.25 | 1.56 | 3.12 | 0.39 | < 0.006 | 3.12 | 0.1 |  |  | > 100 | 50 |  | 1.56 | 1.56 |  | 50 | MIC [12, 36]: 25 µg/mL; MIC [13, 37]: 25 µg/mL; MIC [17, 39]: 100 µg/mL

— patent US5061794A, “Cephalosporin derivatives, and antibacterial agents” (priority 1986, dated 1991)
